In US20250154195A1, “NOVEL BETULIN DERIVATIVES, AND THEIR MANUFACTURING METHOD AND USE AS SURFACTANT” (priority 2022, published 2025):
Like-named read-outs stand apart in the source and are kept apart here.

Tests used:
[1] = Critical micelle concentration (CMC) in water by the stalagmometric method (surface tension vs. concentration); type: physicochemical
Description: (§1) CMC of mono and di-hydrophilic moiety derivatized betulin derivatives were determined according to the stalagmometric method, which is one of the most common methods for measuring surface tension. Samples were prepared at different concentration of mono and di-hydrophilic moiety derivatized betulin derivatives. The surface tension of samples was calculated from the number of drops obtained by stalagmometer. CMC was calculated by plotting surface tensions vs. concentrations of sample.
CMCs of mono-glycosylated betulin, di-glycosylated betulin, mono-(poly) ethoxylated-carbonated betulin and di-(poly) ethoxylated betulin were determined in water, respectively. Surface tensions of samples obtained in above examples were determined at different concentrations according to the stalagmometric method.
as §1, with “mono-hydrophilic” for “mono and di-hydrophilic”
CMCs of two mono-hydrophilic functionalized betulin at C28-hydroxy and C3-hydroxy group were determined in water, respectively. Surface tensions of samples obtained in above examples were determined at different concentrations according to the stalagmometric method. And CMC was obtained as 0.6 mM (Betulin-carbonate-polyether (PEA) from Example 10), and 0.5 mM (Betulin-carbonate-polyether (PEG) from Example 11), respectively, by plotting surface tensions vs. concentrations of sample.

[2] = non-ionic surfactants, literature values; cited from earlier work

| Compound | CMC [1] | CMC [2] |
| --- | --- | --- |
| C=C(C)[C@@H]1CC[C@]2(COC3OC(CO)C(O)C(O)C3O)CC[C@]3(C)C(CCC4[C@@]5(C)CC[C@H](OC6OC(CO)C(O)C(O)C6O)C(C)(C)C5CC[C@]43C)C12 (some centres unmarked) [di-glycosylated betulin, diglucose-betulin] | 1.0 mM | – |
| C=C(C)[C@@H]1CC[C@]2(COC3OC(CO)C(O)C(O)C3O)CC[C@]3(C)C(CCC4[C@@]5(C)CC[C@H](O)C(C)(C)C5CC[C@]43C)C12 (some centres unmarked) [mono-glycosylated betulin, glucose-betulin] | 0.8 mM | – |
| Betulin-carbonate-polyether (PEA) | 0.6 mM | – |
| Betulin-carbonate-polyether (PEG) | 0.5 mM | – |
| Brij 35 | – | 0.1 mM |
| Triton X-100 | – | 0.2 mM |
| fructose oleate | – | 0.4 mM |
| sucrose monolaurate | – | 0.45 mM |
